Measured values published in the OPERA property sets (Mansouri et al. 2018).
Peptide text beside a SMILES is read from it. * marks the point of attachment. Boc = CC(C)(C)OC(=O)*

Row | SMILES | logP
1 | O=C(O)C1c2ccccc2Sc2ccccc21 | 2.57
2 | Clc1cccc(-c2ccccc2Cl)c1 | 5.02
3 | CC(C)(N)Cc1ccc(Cl)cc1 | 2.6
4 | COP(=S)(OC)Oc1ccc([N+](=O)[O-])c(C)c1 | 3.3
5 | CC(C)OC(=O)Nc1cccc(Cl)c1 | 3.51
6 | COc1cc(S(C)=O)ccc1-c1nc2ccncc2[nH]1 (stereo not drawn) | 1.25
7 | COC(=O)c1ccccc1C(=O)O | 1.13
8 | CCCCOC(=O)c1ccc(C(=O)OCCCC)cc1 | 5.53
9 | O=[N+]([O-])c1ccc2c(c1)c([N+](=O)[O-])cc[n+]2[O-] | 0.9
10 | CCC(=O)Nc1ccnc2cc(Cl)ccc12 | 2.73
11 | CC1=C(C(=O)Nc2ccccc2)SCCO1 | 2.14
12 | NS(=O)(=O)c1cc2c(cc1Cl)NC(Cc1ccccc1)NS2(=O)=O (stereo not drawn) | 0.93
13 | NC(=O)c1cccc(C(N)=O)c1 | -0.21
14 | CCCCCCOC(=O)n1cnc(C)c1CSCCNC(=NC#N)NC | 3.1
15 | CC1(C)OC(=O)c2ccccc21 | 1.73
16 | O=Cc1cccc([N+](=O)[O-])c1 | 1.47
17 | CC1CCC(O)CC1 (stereo not drawn) | 1.79
18 | Cc1ccc(Cl)cc1NC1=NCCN1 | 1.83
19 | CN(CC(O)COc1ccccc1)CC(O)COc1ccccc1 (stereo not drawn) | 2.92
20 | CCCOC1OC(CO)C(O)C(O)C1O (stereo not drawn) | -1.66
21 | CC(=O)N[C@@H](CCC(N)=O)C(=O)N[C@@H](Cc1ccccc1)C(N)=O (Ac-Gln-Phe-NH2) | -1.14
22 | C1COCCOCCOCCOCCO1 | -0.48
23 | CCOC(C)OCC | 0.84

Row | SMILES | logP
24 | OC(Cn1ccnc1)c1ccc(CCc2ccccc2)cc1 (stereo not drawn) | 3.4
25 | CN[C@H]1CCc2cc(OC)c(OC)c(OC)c2-c2ccc(OC)c(=O)cc21 | 1.37
26 | Cc1cnc2ccccc2c1 | 2.53
27 | ClC(Cl)=C(Cl)C(Cl)=C(Cl)Cl | 4.78
28 | Cc1cc(C)cc(O)c1 | 2.35
29 | CCCCCCCNC(=O)c1ccccc1 | 3.94
30 | COc1cc2c(cc1OC)C13CCN4CC5CCOC6CC(=O)N2C1C6C5CC43 (stereo not drawn) | 0.84
31 | O=C1CCCCN1 | -0.46
32 | CCOc1cc(C(=O)NN)ccn1 | 0.48
33 | NNC(=O)c1ccccc1 | 0.19
34 | CCc1ccccc1C | 3.53
35 | COC(=O)c1ccccc1S(I)=C(N(C)C)N(C)C (stereo not drawn) | -0.7
36 | Cc1cc(CC(=O)O)ccc1OCc1ccccc1 | 3.37
37 | Cc1ccc2c(c1)c([N+](=O)[O-])cc[n+]2[O-] | 1.43
38 | CCc1ccc(OC(C)=O)cc1 | 2.56
39 | CCOC(=O)Cc1ccccc1 | 2.28
40 | CC(C)(C)C(=O)OCC1CCC(n2cnc3c(=O)[nH]cnc32)O1 (stereo not drawn) | 0.6
41 | CC(=O)Oc1cccc(Cl)c1 | 2.32
42 | CC(C)CC#N | 1.07
43 | COc1ccc(OC(C)=O)cc1 | 1.54
44 | Nc1ccc(Cl)nn1 | 0.35
45 | Nc1nnc(Cc2ccccc2)o1 | 0.95
46 | O=NN(CCCl)C(=O)NCCCl | 1.53

Row | SMILES | logP
47 | Cc1ccc(-c2cc3ccccn3c2)cc1 | 4.96
48 | C[C@@H](N)[C@@H](O)c1ccccc1 | 0.67
49 | NCc1cccnc1 | -0.32
50 | CC(C)(c1ccc(O)cc1)c1ccc(O)cc1 | 3.32
51 | O=Cc1ccccn1 | 0.44
52 | CN1CC(=O)NC1=N | -1.76
53 | OC(CF)CF | -0.36
54 | CCCCCCn1nnc2ccccc21 | 3.7
55 | CC(C)C(NC(=O)C(Cc1ccccc1)NC(=O)OC(C)(C)C)C(=O)O (stereo not drawn) (Boc-Phe-Val-OH; configuration not given here) | 2.88
56 | CC(C)[C@@H](N)Cc1ccccc1 | 2.59
57 | Nc1ccccc1-c1ccccc1 | 2.84
58 | CN(C)c1ccc(Cl)nn1 | 0.98
59 | CCCN(CCC)C1CCOc2c(O)cccc21 (stereo not drawn) | 3.3
60 | CCCCOCC | 2.03
61 | CCOP(=O)(OCC)Oc1cc(C)nc(C(C)C)n1 | 2.07
62 | CCOP(=O)(OCC)Oc1ccc(SC)cc1Cl | 3.05
63 | NS(=O)(=O)NCCc1ccccc1 | 0.81
64 | CC(=O)Nc1ccccn1 | 0.61
65 | Nc1ccc(-c2nc([N+](=O)[O-])c[nH]2)cc1 | 0.86
66 | NC(=O)CCc1cccnc1 | -0.26
67 | C=CCCBr | 2.53
68 | O=C(O)Cc1cccc(Cl)c1 | 2.09
69 | O=C1CN=C(c2ccccc2)c2cc(Cl)ccc2N1CC1CC1 | 3.73

Row | SMILES | logP
70 | CCOc1cccc(NC(C)=O)c1 | 1.82
71 | O=CNC(=O)C1CCC1 | -0.7
72 | OCCCc1ccccn1 | 0.58
73 | O=C(OCn1ncc2c(=O)[nH]cnc21)c1ccc(CN2CCOCC2)cc1 | 1.12
74 | C(=C\c1ccccc1)/c1ccccc1 | 4.81
75 | Nc1ccc(C(=O)O)c(Br)c1 | 1.49
76 | CNC(=O)C=Cc1ccccc1 | 1.81
77 | CC(=O)OCCc1ccccc1 | 2.3
78 | c1ccc2c(c1)CCc1ccccc1-2 | 4.52
79 | Oc1cccc(Br)c1 | 2.63
80 | CC(=O)c1cccc(Cl)c1 | 2.51
81 | CCCCC(O)CC (stereo not drawn) | 2.24
82 | CCCc1ccc([N+](=O)[O-])cc1 | 3.45
83 | COc1cc2c(c(OC)c1OC)-c1ccc(N)c(=O)cc1[C@@H](NC(C)=O)CC2 | 0.3
84 | C[C@]12CC[C@@H]3c4ccc(O)cc4CC[C@H]3[C@@H]1C[C@@H](O)[C@@H]2O | 2.45
85 | CCNc1ccccc1 | 2.16
86 | O=S(=O)(c1ccccc1)c1cccc2cccnc12 | 2.33
87 | Oc1ccccc1C(F)(F)F | 2.8
88 | CC(C)N(Cc1cccnc1)C(C)C | 2.27
89 | CC(C)NNC(=O)COc1cccc(Cl)c1 | 1.91
90 | O=C1CN=C(c2ccccc2Cl)c2cc([N+](=O)[O-])ccc2N1 | 2.41
91 | COc1ccccc1C=CC(=O)OCCOc1ccc(C=NO)cc1OC | 3.56
92 | COc1cc(O)cc(OC)c1 | 1.64

Row | SMILES | logP
93 | Clc1cc2oc3c(Cl)c(Cl)ccc3c2c(Cl)c1Cl | 6.26
94 | CCN | -0.13
95 | CCN1CC(C(O)C(CC2CCCCC2)NC(=O)C(Cc2cnc[nH]2)NC(=O)C(CC(=O)N2CC(OCOC)C(OCOC)C2)Cc2ccccc2)OC1=O (stereo not drawn) | 2.31
96 | COc1cc(S(C)=O)ccc1-c1nc2nnccc2[nH]1 (stereo not drawn) | 0.23
97 | CCC(C)c1cccc(C(C)C)c1O (stereo not drawn) | 3.85
98 | NS(=O)(=O)c1cc2c(cc1Cl)N=CNS2(=O)=O | -0.24
99 | C[C@]12CC[C@H]3[C@@H](CCC4=CC(=O)CC[C@@]43C)[C@@H]1CC[C@@H]2C(=O)CO | 2.88
100 | C=CCNCC=C | 1.11
101 | C=CCC1(C(C)CCC)C(=O)NC(=S)NC1=O (stereo not drawn) | 3.23
102 | CCCCCCOC(=O)C(CC)C(CO)Cc1cncn1C (stereo not drawn) | 2.71
103 | C[C@]12CCC(=O)C=C1CC[C@@H]1[C@@H]2CC[C@@]2(C)[C@H]1CC[C@]2(C)O | 3.36
104 | N#Cc1ccc2nc(N)[nH]c2c1 | 1.13
105 | CC(=O)OCC1OC(n2ccnc2[N+](=O)[O-])C(OC(C)=O)C(OC(C)=O)C1OC(C)=O (stereo not drawn) | 0.52
106 | FC(Cl)Cl | 1.55
107 | Nc1ccn([C@@H]2C=C(CO)[C@@H](O)[C@H]2O)c(=O)n1 | -2.45
108 | Cc1ccc2[nH]c(=O)[nH]c(=O)c2c1 | 0.55
109 | OCC1OC(OCc2ccccc2)C(O)C(O)C1O (stereo not drawn) | -0.7
110 | Cc1c(Cl)cc(-c2ccc(=O)[nH]n2)cc1Cl | 3.2
111 | CC(=O)Nc1c(I)c(C(=O)N[C@H]2C(O)O[C@H](CO)[C@@H](O)[C@@H]2O)c(I)c(N(C)C(C)=O)c1I (stereo partly drawn) | -1.89
112 | Sc1ccccn1 | -0.13
113 | CC(C)(C)c1ccc(N)cc1 | 2.7
114 | CC(=O)OCC(=O)[C@@]1(O)CC[C@H]2[C@@H]3CCC4=CC(=O)CC[C@]4(C)[C@H]3C(=O)C[C@@]21C | 2.1
115 | COc1cccc(C(C)=O)c1 | 1.84

Row | SMILES | logP
116 | CC(Cl)(Cl)C(=O)O | 0.78
117 | CCN(C)C | 0.7
118 | CCCCOC(=O)c1cc(O)c(O)c(O)c1 | 2.41
119 | COc1cccc(S(I)=C(N(C)C)N(C)C)c1 (stereo not drawn) | -0.5
120 | Cc1ncc(CNC(=O)N(CCCl)N=O)c(N)n1 | 0.39
121 | CNc1ccccc1 | 1.66
122 | O=C(O)c1cc(Cl)cc(Cl)c1 | 3
123 | CC(=O)Nc1cccc(NC(C)=O)c1 | 0.5
124 | CC(=O)c1ccccc1S(I)=C(N(C)C)N(C)C (stereo not drawn) | -0.81
125 | FC(F)OC(Cl)C(F)(F)F (stereo not drawn) | 2.06
126 | O=C(NP(=O)(N1CC1)N1CC1)c1ccc(Cl)cc1 | 0.97
127 | CCOc1cccc(C(=O)NP(=O)(N2CC2)N2CC2)c1 | 1.24
128 | c1ccc(Cn2cnnc2)cc1 | 0.74
129 | CCOC(=O)CCl | 0.94
130 | NC(=O)c1ccccc1N | 0.35
131 | S=C=Nc1ccc2ccccc2c1 | 4.34
132 | O=C(CCBr)N1CCN(C(=O)CCBr)CC1 | 0.42
133 | CN(C)C(=O)Nc1ccc(Cl)c(Cl)c1 | 2.68
134 | CC(=O)COc1ccccc1 | 1.04
135 | O=C(C=Cc1ccco1)c1ccco1 | 2.34
136 | CCC(=O)OC1(c2ccccc2)CC(C)N(C)CC1C (stereo not drawn) | 3.13
137 | CNC(=O)Oc1cc(C)c(SC)c(C)c1 | 2.92
138 | CC[C@H](C)[C@H](NC(=O)[C@@H](NC(C)=O)C(C)C)C(=O)NCC(N)=O (Ac-Val-Ile-Gly-NH2) | -0.45

Row | SMILES | logP
139 | OCc1ccc2cccnc2c1 | 1.29
140 | CC1CC2C3CC(F)C4=CC(=O)C(Cl)=CC4(C)C3(F)C(O)CC2(C)C1(O)C(=O)CO (stereo not drawn) | 2.58
141 | COc1cc2c(cc1OC)[C@@]13CCN4CC5=CCO[C@H]6CC(=O)N2[C@H]1[C@H]6[C@H]5C[C@H]43 | 0.98
142 | CCOP(=S)(OCC)SCSCC | 3.56
143 | CC(=O)CCCc1ccccc1 | 2.42
144 | COc1ccc(Cl)nn1 | 0.89
145 | CC(=S)Nc1ccccc1 | 1.71
146 | CN(C(=O)c1ccccc1)c1ccccc1 | 2.36
147 | CCCc1ccc(S(N)(=O)=O)cc1 | 1.64
148 | COC=O | 0.03
149 | CC(=O)Nc1ncccn1 | -0.75
150 | CCC(=O)OC1(C(=O)CCl)C(C)CC2C3CCC4=CC(=O)C=CC4(C)C3C(=O)CC21C (stereo not drawn) | 3.3
151 | O=C(O)COc1cccc(Cl)c1 | 2.03
152 | COC(=O)c1cccc(C(=O)O)c1 | 1.83
153 | CCCOC(=O)c1cccnc1 | 1.94
154 | C=C1C(C)C2C(Cc3ccccc3)NC(=O)C23OC(=O)C=CC(O)CCCC(C)CC=CC3C1O (stereo not drawn) | 3.37
155 | Cc1ccc(O)c(C)c1 | 2.3
156 | CCOC(=O)C(=O)Nc1ccccc1 | 1.48
157 | C1CCc2nnnn2CC1 | 0.14
158 | CC(C)NC(=O)c1cccnc1 | 0.59
